Patent US20240293343A1, “Benzylideneaminoguanidine derivatives as NR2B-selective NMDA receptor antagonists and their therapeutic applications” (InFlectis BioScience, priority 2023, published 2024)
Like-named read-outs stand apart in the source and are kept apart here.

Assays:
sciatic nerve injury = assay: Mouse model of sciatic nerve injury (toe spreading, electromyography, histology); assay type: in vivo, mice (Swiss CD-1); details: 1.5 mg/kg once daily per os
Experimental: 6-week-old Swiss (CD-1) male mice were provided by Janvier Labs and housed in an animal facility in a day/night inversed cycle. […] Mice were anesthetized with ketamine chlorohydrate (100 mg/kg) and xylazine (10 mg/kg) and placed on a heating pad. Skin was incised and the sciatic nerve exposed at mid-thigh level and lesioned with fine forceps to ensure peripheral injury. The nerve was crushed twice with a haemostatic forceps (width 1.5 mm; Koenig, Strasbourg, France) with a 90-degree rotation between each crush. The skin incision was sutured, and mice were allowed to recover isolated until the end of anesthesia. The hind limb, contralateral to the lesion, served as uninjured control. Analgesia was induced prior surgery and the following days with bunepronorphine (0.1 mg/kg). […] The loss of nerve function recovered progressively over a 4-5 weeks period after mechanical insult.
At day 0, on day 7, and on day 14 and day 21 post-surgery, the functionality of the nerve fibers was determined with an electromyography apparatus (Dantec, Natus, France), on the ipsilateral side and contralateral side. […] The compound muscle action potential (CMAP) was measured: more precisely the amplitude (mV) and the latency (ms) of the action potential were recorded in gastrocnemius muscle after stimulation of the sciatic nerve. […]

ion channel of the NMDAR = assay: NMDAR radiolabeled ligand displacement assay, MK-801; assay type: binding, rat; details: pore channel
[1] = target: T1, Ifenprodil binding site on the NR2B subunit (Rattus norvegicus, UniProt P35439+Q00960); assay: NMDAR radiolabeled ligand displacement assay, Ifenprodil
T1 construct: tissue Eurofins 232910/233010/234000/SafetyScreen44 Panel; host or cells: rat cerebral cortex
T1 sequence (Q00960 27-1482, other chains not shown): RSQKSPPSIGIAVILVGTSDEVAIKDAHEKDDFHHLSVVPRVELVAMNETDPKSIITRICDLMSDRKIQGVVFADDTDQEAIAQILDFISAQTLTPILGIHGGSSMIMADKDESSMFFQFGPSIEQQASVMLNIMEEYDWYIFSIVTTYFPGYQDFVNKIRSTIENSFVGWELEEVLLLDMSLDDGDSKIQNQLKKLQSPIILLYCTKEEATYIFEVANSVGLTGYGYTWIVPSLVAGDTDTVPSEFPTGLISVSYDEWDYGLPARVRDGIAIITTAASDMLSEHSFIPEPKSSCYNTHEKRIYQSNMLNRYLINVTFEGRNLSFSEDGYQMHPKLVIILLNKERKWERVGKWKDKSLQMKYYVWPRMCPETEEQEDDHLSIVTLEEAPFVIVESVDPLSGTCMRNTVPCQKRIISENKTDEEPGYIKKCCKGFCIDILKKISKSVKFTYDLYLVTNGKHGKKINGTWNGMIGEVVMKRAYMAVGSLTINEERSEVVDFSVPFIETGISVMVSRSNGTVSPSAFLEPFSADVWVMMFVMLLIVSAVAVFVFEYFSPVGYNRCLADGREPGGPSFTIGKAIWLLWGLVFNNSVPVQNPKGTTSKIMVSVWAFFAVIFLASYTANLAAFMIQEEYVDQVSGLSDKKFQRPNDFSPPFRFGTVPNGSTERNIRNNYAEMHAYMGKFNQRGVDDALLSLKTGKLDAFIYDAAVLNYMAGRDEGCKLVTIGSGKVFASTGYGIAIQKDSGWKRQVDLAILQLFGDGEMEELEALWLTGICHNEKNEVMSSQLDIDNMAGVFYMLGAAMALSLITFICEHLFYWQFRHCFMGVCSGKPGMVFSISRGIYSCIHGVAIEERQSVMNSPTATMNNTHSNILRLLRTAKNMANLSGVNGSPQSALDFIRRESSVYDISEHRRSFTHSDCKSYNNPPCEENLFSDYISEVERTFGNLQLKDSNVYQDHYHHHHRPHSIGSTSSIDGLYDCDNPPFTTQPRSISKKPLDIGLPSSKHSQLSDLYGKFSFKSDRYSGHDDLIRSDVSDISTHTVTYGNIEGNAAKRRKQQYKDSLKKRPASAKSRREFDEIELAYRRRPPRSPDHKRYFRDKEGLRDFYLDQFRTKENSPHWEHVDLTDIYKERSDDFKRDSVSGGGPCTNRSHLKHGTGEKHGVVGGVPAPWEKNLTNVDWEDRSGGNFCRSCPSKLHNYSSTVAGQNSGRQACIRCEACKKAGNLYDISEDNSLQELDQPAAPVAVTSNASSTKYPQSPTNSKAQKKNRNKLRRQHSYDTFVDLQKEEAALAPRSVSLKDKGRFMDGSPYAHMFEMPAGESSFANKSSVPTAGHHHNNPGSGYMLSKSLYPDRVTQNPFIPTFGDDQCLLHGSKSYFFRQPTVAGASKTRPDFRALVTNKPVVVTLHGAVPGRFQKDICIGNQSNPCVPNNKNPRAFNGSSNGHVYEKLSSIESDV

[2] = target: T2, glycine binding to the NMDAR NR1 subunit (Rattus norvegicus, UniProt P35439); assay: NMDAR radiolabeled ligand displacement assay, MDL-105,519; details: glycine site
T2 construct: tissue Eurofins 232910/233010/234000/SafetyScreen44 Panel

[3] = test system: glutamate binding to the NMDAR NR2 subunit; assay: NMDAR radiolabeled ligand displacement assay, CGP-39653; set-up: species or system rat; details: glutamate site
NMDAR (NR1A/NR2B) = target: T3, NMDAR (NR1A/NR2B) (Homo sapiens, UniProt Q05586+Q13224); assay: NMDAR (NR1A/NR2B) Human Glutamate Ion Channel Cell Based Antagonist Ca2+ Flux Assay; details: Hek293 cells expressing NMDAR subunit 1A/2B, FLIPR Tetra; read-out: IC50, antagonist activity on Ca^2+ flux
T3 construct: host or cells: HEK293
T3 sequence (Q13224 27-1484, other chains not shown): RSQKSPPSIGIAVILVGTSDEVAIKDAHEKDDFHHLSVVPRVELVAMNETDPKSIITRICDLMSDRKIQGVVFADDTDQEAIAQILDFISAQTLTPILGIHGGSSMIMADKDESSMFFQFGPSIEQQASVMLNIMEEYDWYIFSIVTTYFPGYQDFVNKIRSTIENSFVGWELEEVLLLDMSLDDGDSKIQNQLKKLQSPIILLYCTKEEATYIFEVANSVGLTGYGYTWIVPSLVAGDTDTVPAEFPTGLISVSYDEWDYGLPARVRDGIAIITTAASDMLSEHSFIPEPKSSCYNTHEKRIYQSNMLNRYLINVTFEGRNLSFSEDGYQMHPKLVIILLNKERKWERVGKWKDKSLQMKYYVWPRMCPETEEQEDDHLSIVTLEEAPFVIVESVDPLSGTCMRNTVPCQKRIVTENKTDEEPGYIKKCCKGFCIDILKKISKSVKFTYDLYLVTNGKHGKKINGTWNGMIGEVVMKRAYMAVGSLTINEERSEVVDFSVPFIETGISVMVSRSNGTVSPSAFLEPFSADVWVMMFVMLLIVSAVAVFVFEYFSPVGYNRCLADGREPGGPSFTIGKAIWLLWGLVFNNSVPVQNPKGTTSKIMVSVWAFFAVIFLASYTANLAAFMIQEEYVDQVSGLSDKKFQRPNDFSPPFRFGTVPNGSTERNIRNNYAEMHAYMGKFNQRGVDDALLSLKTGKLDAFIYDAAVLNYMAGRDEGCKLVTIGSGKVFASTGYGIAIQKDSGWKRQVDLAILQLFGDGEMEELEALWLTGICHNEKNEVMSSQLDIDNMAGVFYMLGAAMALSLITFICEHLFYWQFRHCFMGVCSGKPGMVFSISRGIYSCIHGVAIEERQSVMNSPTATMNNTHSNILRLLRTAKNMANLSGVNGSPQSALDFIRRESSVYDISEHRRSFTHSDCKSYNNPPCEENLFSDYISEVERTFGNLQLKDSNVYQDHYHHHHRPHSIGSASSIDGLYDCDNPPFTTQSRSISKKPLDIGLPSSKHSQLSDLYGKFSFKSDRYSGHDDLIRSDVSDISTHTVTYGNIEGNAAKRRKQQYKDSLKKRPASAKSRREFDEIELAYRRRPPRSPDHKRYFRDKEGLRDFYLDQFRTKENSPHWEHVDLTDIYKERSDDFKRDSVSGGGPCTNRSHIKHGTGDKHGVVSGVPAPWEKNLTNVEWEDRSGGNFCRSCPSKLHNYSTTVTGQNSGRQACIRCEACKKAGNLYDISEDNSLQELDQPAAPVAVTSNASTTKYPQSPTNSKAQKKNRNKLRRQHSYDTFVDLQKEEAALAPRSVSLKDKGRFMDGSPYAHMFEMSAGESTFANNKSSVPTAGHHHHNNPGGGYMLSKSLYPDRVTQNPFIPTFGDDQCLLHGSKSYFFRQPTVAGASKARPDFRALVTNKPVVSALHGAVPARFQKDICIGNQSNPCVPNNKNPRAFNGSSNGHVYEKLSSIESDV
Experimental: Briefly, Hek293 cells stably transfected to express NMDAR subunit 1A/2B were seeded into 384-well microplates and incubated at 37° C. Cells were loaded with dye prior to testing. […] Cells were further incubated for 30-60 minutes at 37° C., and compound activity on calcium flux was measured on a FLIPR Tetra (MDS).

[4] = human, cited from earlier work
[5] = solid and solution states; cited from earlier work
[6] = test system: NMDA-induced currents / cytosolic Ca^2+ load; details: Ruiz et al. 2020; cited from earlier work
[7] = in vivo

| SMILES | displacement of radiolabeled ligand MK-801 (ion channel of the NMDAR) | IC50 [1] [nM] | displacement of radiolabeled ligand MDL-105,519 [2] | displacement of radiolabeled ligand CGP-39653 [3] | IC50 (NMDAR (NR1A/NR2B)) [nM] | other results |
| --- | --- | --- | --- | --- | --- | --- |
| N=C(N)N/N=C/c1ccc(F)cc1Cl [Compound 3, 2-(2-chloro-4-fluoro-benzylidene)hydrazine-carboximidamide] | unable to displace | 250 | unable to displace | unable to displace | 702 | recovery of toe spreading compared to control group (sciatic nerve injury): faster; recovery of toe spreading, median time (printed median survival) (sciatic nerve injury; ipsilateral paw, vehicle usually after 10 days): 8 days |
| CC(=O)O.N=C(N)N/N=C/c1c(Cl)cccc1Cl [Compound 1, 2-(2,6-dichlorobenzylidene)hydrazine-carboximidamide acetate salt] | unable to displace | 400 | unable to displace | unable to displace | 625 | adverse events resembling those present in schizophrenia ([4]; controlled and open therapeutic trials): none of the adverse events seen with compound 1 (i.e. guanabenz) resembled those present in schizophrenia; cardiovascular side effects [4]: rare, apart from a decrease in heart rate; reported side effects [4]: drowsiness, dry mouth, dizziness and weakness; spontaneous isomerization (E/Z) [5]: practically insignificant; NMDA-induced currents [6]: reducing; NMDA-induced cytosolic Ca^2+ load [6]: reducing |
| N=C(N)N/N=C/c1ccc(O)cc1Cl [Compound 19, 2-(2-chloro-4-hydroxybenzylidene)hydrazine-carboximidamide] |  |  |  |  |  | adverse events resembling those present in schizophrenia ([7]; human): None of the adverse events seen with compound 2 and 19 resembled those present in schizophrenia; compound-related hypotension and dizziness ([7]; human): No clinically significant compound 2 and 19-related hypotension, and dizziness; metabolite status in human [7]: major human metabolite of compound 2 |
| C[C@]12N[C@H](Cc3ccccc31)c1ccccc12 [MK-801] |  |  |  |  | 69 |  |
